BigSolDB 2.1

Oc1ccccc1/C=N/CC/N=C/c1ccccc1O
solubility (mole fraction)
Conditions	in dichloromethane	in diethyl ether	in ethanol	in methanol	in n-hexane	in toluene
268.15 K	0.0352	0.00119	–	–	–	–
273.15 K	0.0369	0.00136	–	–	–	–
278.15 K	0.0408	0.00165	0.00026	0.0003	–	0.00947
283.15 K	0.0469	0.00193	0.00035	0.00036	–	0.0115
288.15 K	0.0533	0.00232	0.00048	0.00049	0.00084	0.014
293.15 K	0.0605	0.00281	0.00069	0.00064	0.00095	0.0164
298.15 K	0.0696	0.0035	0.0009	0.00081	0.00112	0.0198
303.15 K	0.0775	0.00455	0.00112	0.00099	0.00127	0.0256
308.15 K	–	–	0.00147	0.00125	0.00143	0.0305
313.15 K	–	–	0.00199	0.00155	0.00161	0.0379
318.15 K	–	–	0.00252	0.00185	0.00186	0.047
